pIC50: −log10 of the molar value.

hDGAT2, sequence (Q96PD7 whole entry): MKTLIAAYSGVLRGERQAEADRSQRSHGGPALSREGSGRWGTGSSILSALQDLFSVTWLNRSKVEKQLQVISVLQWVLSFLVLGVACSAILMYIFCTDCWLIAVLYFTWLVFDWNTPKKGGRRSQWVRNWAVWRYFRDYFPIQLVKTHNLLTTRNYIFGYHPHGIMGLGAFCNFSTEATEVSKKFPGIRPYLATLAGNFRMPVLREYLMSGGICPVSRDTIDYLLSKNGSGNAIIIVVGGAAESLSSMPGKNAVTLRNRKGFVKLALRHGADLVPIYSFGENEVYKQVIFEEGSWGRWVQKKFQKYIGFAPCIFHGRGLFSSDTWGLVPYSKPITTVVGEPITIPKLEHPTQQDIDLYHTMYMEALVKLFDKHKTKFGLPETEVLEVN

One experiment concerns the target hDGAT2 (Homo sapiens (Human), UniProt Q96PD7). In words: In vitro DGAT2 assay, hDGAT2 membrane fraction, [14C]decanoyl-CoA scintillation readout. The class given is biochemical. To be noted: geometric mean; FLAG-hDGAT2 membrane fraction; 2 h preincubation; read-out: IC50 for inhibition of DGAT2. The protocol: Recombinant baculovirus for the FLAG-tagged hDGAT2 was generated in SF9 insect cells using Bac-to-Bac baculovirus expression system (Invitrogen) according to the manufacturer's protocol. For the expression of hDGAT2, SF9 cells (20 L) grown in Sf90011 media were infected with hDGAT2 baculovirus at a multiplicity of infection of 1 in a Wave Bioreactor System 20/50P wave bag (GE Healthcare). After 40 hours of infection, the cells were then harvested by centrifugation at 5,000×g. The cell pellets were washed by resuspending in phosphate buffered saline (PBS) and collected by centrifugation at 5,000×g. The cell paste was flash frozen in liquid N2 and stored at −80° C. until needed. All operations below were at 4° C. unless otherwise noted. The cells were resuspended in lysis buffer (50 mM Tris-HCl, pH 8.0, 250 mM sucrose) including 1 mM ethylenediaminetetraacetic acid (EDTA) and the complete protease inhibitor cocktail (Roche Diagnostics) at a ratio of 3 ml buffer per 1 g cell paste. The cells were lysed by dounce homogenizer. The cell debris was removed by centrifugation at 1,000×g for 20 min, and the supernatant was centrifuged at 100,000×g for 1 hour. The resulting pellet was rinsed three times by filling ultracentrifuge tubes to the top with ice cold PBS before decanting. The washed pellet was resuspended with gentle stirring for 1 hour in lysis buffer containing 8 mM 3-[(3-cholamidopropyl)dimethylammonio]-1-propanesulfonate (CHAPS) at a ratio of 1 mL buffer per 1 g of original cell paste and centrifuged again at 100,000×g for 1 hour. The resulting supernatant was aliquotted, flash frozen in liquid N2, and stored at −80° C. until use.
For determination of IC50 values, the reactions were carried out in 384-well white Polyplates (Perkin Elmer) in a total volume of 20 μL. To […] compounds dissolved in 100% DMSO and spotted at the bottom of each well, 5 μL of 0.04% bovine serum albumin (BSA) (fatty acid free, Sigma Aldrich) was added and the mixture was incubated at room temperature for 20 minutes. To this mixture, 10 μL of hDGAT2 membrane fraction (0.01 mg/mL) diluted in 100 mM Hepes-NaOH, pH 7.4, 20 mM MgCl2 containing 200 nM methyl arachidonyl fluorophosphonate (Cayman Chemical; dried from ethyl acetate stock solution under argon gas and dissolved in DMSO as 5 mM stock) was added. After this mixture was preincubated at room temperature for 2 hours, DGAT2 reactions were initiated by the addition of 4 μL of substrates containing 30 μM [1-^14C]decanoyl-CoA (custom-synthesized by Perkin Elmer, 50 mCi/mmol) and 125 μM 1,2-didecanoyl-sn-glycerol (Avanti Polar Lipids) dissolved in 12.5% acetone. The reaction mixtures were incubated at room temperature for 40 min and the reactions were stopped by addition of 5 μL of 1% H3PO4. After the addition of 45 μL MicroScint-E (Perkin-Elmer), plates were sealed with Top Seal-A covers (Perkin-Elmer) and phase partitioning of substrates and products was achieved using a HT-91100 microplate orbital shaker (Big Bear Automation, Santa Clara, Calif.). Plates were centrifuged at 2,000×g for 1 min in an Allegra 6R Centrifuge (Beckman Coulter) and then were sealed again with fresh covers before reading in a 1450 Microbeta Wallac Trilux Scintillation Counter (Perkin Elmer). DGAT2 activity was measured by quantifying the generated product [^14C]tridecanoylglycerol in the upper organic phase.
Inhibitors were tested at eleven different concentrations to generate IC50 values for each compound.
Usually pIC50 stands for the negative decadic logarithm of the IC50, by convention in mol/L. In the case of `CCOc1ccccc1O[C@@H]1CCCN(c2ncc(C(=O)N[C@@H]3CNC(=O)C3)cn2)C1` [Example 19.16, 2-((R)-3-(2-ethoxyphenoxy)piperidin-1-yl)-N-((S)-5-oxopyrrolidin-3-yl)pyrimidine-5-carboxamide], the pIC50 is 6.91.
`CCOc1ccccc1O[C@@H]1CCCN(c2ncc(C(=O)N3CC(Oc4ccccc4)C3)cn2)C1` [Example 21.2, (R)-(2-(3-(2-ethoxyphenoxy)piperidin-1-yl)pyrimidin-5-yl)(3-phenoxyazetidin-1-yl)methanone]: the pIC50 is 9.22.
Same read-out and setting: in the case of `CCOc1ccccc1O[C@@H]1CCCN(c2ncc(C(=O)NCCCc3nn[nH]n3)cn2)C1` [Example 20.2, (R)-N-(3-(2H-tetrazol-5-yl)propyl)-2-(3-(2-ethoxyphenoxy)piperidin-1-yl)pyrimidine-5-carboxamide] it was 6.37.
Same read-out and setting: in the case of `CCOc1ccccc1O[C@@H]1CCCN(c2ncc(C(=O)Nc3ccon3)cn2)C1` [Example 19.19, (R)-2-(3-(2-ethoxyphenoxy)piperidin-1-yl)-N-(isoxazol-3-yl)pyrimidine-5-carboxamide] it was 7.95.
`CCOc1ccccc1O[C@@H]1CCCN(c2ncc(C(=O)NCC(=O)NC)cn2)C1` [Example 20.6, (R)-2-(3-(2-ethoxyphenoxy)piperidin-1-yl)-N-(2-(methylamino)-2-oxoethyl)pyrimidine-5-carboxamide]: the pIC50 was 6.84.
The same measure, in the same setting: in the case of `CCOc1ccccc1O[C@@H]1CCCN(c2ncc(C(=O)NCc3cnccn3)cn2)C1` [Example 19.18, (R)-2-(3-(2-ethoxyphenoxy)piperidin-1-yl)-N-(pyrazin-2-ylmethyl)pyrimidine-5-carboxamide] it was 7.65.
Still for that read-out and setting: in the case of `CCOc1ccccc1O[C@@H]1CCCN(c2ncc(C(=O)NC(C)(C)CC(N)=O)cn2)C1` [Example 19.17, (R)-N-(4-amino-2-methyl-4-oxobutan-2-yl)-2-(3-(2-ethoxyphenoxy)piperidin-1-yl)pyrimidine-5-carboxamide] it was 7.91.
Same read-out and setting: in the case of `CCOc1ccccc1O[C@@H]1CCCN(c2ncc(C(=O)N3CCOCC3)cn2)C1` [Example 19.1, (R)-(2-(3-(2-ethoxyphenoxy)piperidin-1-yl)pyrimidin-5-yl)(morpholino)methanone] it was 7.65.
With `CCOc1ccccc1O[C@@H]1CCCN(c2ncc(C(=O)N3CCCC3)cn2)C1` [Example 20.9, (R)-(2-(3-(2-ethoxyphenoxy)piperidin-1-yl)pyrimidin-5-yl)(pyrrolidin-1-yl)methanone], the pIC50 is 7.61.
Still for that read-out and setting: the result for `CCOc1ccccc1O[C@@H]1CCCN(c2ncc(C(=O)NCc3ccccc3)cn2)C1` [Example 19.7, (R)-N-benzyl-2-(3-(2-ethoxyphenoxy)piperidin-1-yl)pyrimidine-5-carboxamide] reads 8.37; that for `CCOc1ccccc1O[C@@H]1CCCN(c2ncc(C(=O)NCC(=N)N)cn2)C1` [Example 19.5, (R)-N-(2-amino-2-iminoethyl)-2-(3-(2-ethoxyphenoxy)piperidin-1-yl)pyrimidine-5-carboxamide], 6.91.
In the case of `CCOc1ccccc1O[C@@H]1CCCN(c2ncc(C(=O)NCc3cocn3)cn2)C1` [Example 19.15, (R)-2-(3-(2-ethoxyphenoxy)piperidin-1-yl)-N-(oxazol-4-ylmethyl)pyrimidine-5-carboxamide], the pIC50 is 7.95.
On the same count and under the same terms, in the case of `CCOc1ccccc1O[C@@H]1CCCN(c2ncc(C(=O)NCc3ccon3)cn2)C1` [Example 19.3, (R)-2-(3-(2-ethoxyphenoxy)piperidin-1-yl)-N-(isoxazol-3-ylmethyl)pyrimidine-5-carboxamide] it was 7.97; in that of `CCOc1ccccc1O[C@@H]1CCCN(c2ncc(C(=O)NCc3cccc(C(=O)O)c3OC)cn2)C1` [Example 14, (R)-3-((2-(3-(2-ethoxyphenoxy)piperidin-1-yl)pyrimidine-5-carboxamido)methyl)-2-methoxybenzoic acid], 7.12.
Same read-out and setting: the result for `CCOc1ccccc1O[C@@H]1CCCN(c2ncc(C(=O)N3CC(OC)C3)cn2)C1` [Example 19.9, (R)-(2-(3-(2-ethoxyphenoxy)piperidin-1-yl)pyrimidin-5-yl)(3-methoxyazetidin-1-yl)methanone] reads 7.84; that for `CCOc1ccccc1O[C@@H]1CCCN(c2ncc(C(=O)NCC3CC3)cn2)C1` [Example 19.4, (R)-N-(cyclopropylmethyl)-2-(3-(2-ethoxyphenoxy)piperidin-1-yl)pyrimidine-5-carboxamide], 7.73; that for `CCOc1ccccc1O[C@@H]1CCCN(c2ncc(C(=O)N3C[C@H]4C[C@@H]3CO4)cn2)C1` [Example 19.14, ((1R,4R)-2-oxa-5-azabicyclo[2.2.1]heptan-5-yl)(2-((R)-3-(2-ethoxyphenoxy)piperidin-1-yl)pyrimidin-5-yl)methanone], 7.67.
Still for that read-out and setting: in the case of `CCOc1ccccc1O[C@@H]1CCCN(c2ncc(C(=O)N3CCC3)cn2)C1` [Example 19.11, (R)-azetidin-1-yl(2-(3-(2-ethoxyphenoxy)piperidin-1-yl)pyrimidin-5-yl)methanone] it was 7.57; in that of `CCOc1ccccc1O[C@@H]1CCCN(c2ncc(C(=O)NCCn3cncn3)cn2)C1` [Example 19.10, (R)-N-(2-(1H-1,2,4-triazol-1-yl)ethyl)-2-(3-(2-ethoxyphenoxy)piperidin-1-yl)pyrimidine-5-carboxamide], 7.49.
Take `CCOc1ccccc1O[C@@H]1CCCN(c2ncc(C(=O)N[C@H]3CNC(=O)C3)cn2)C1` [Example 19.13, 2-((R)-3-(2-ethoxyphenoxy)piperidin-1-yl)-N-((R)-5-oxopyrrolidin-3-yl)pyrimidine-5-carboxamide]: the pIC50 is 7.33.
The same measure, in the same setting: in the case of `CCOc1ccccc1O[C@@H]1CCCN(c2ncc(C(=O)NC3CCC3)cn2)C1` [Example 19.22, (R)-N-cyclobutyl-2-(3-(2-ethoxyphenoxy)piperidin-1-yl)pyrimidine-5-carboxamide] it was 7.97; in that of `CCOc1ccccc1O[C@@H]1CCCN(c2ncc(C(=O)N[C@H]3CCc4ccccc43)cn2)C1` [Example 21.1, N-((S)-2,3-dihydro-1H-inden-1-yl)-2-((R)-3-(2-ethoxyphenoxy)piperidin-1-yl)pyrimidine-5-carboxamide], 8.82; in that of `CCOc1ccccc1O[C@@H]1CCCN(c2ncc(C(=O)N3CC(F)(F)C3)cn2)C1` [Example 20.7, (R)-(3,3-difluoroazetidin-1-yl)(2-(3-(2-ethoxyphenoxy)piperidin-1-yl)pyrimidin-5-yl)methanone], 8.10.
For the molecule `CCOc1ccccc1O[C@@H]1CCCN(c2ncc(C(=O)NCCC(=O)NC)cn2)C1` [Example 20.4, (R)-2-(3-(2-ethoxyphenoxy)piperidin-1-yl)-N-(3-(methylamino)-3-oxopropyl)pyrimidine-5-carboxamide], the pIC50 was 7.27.
Regarding `CCOc1ccccc1O[C@@H]1CCCN(c2ncc(C(=O)N3Cc4cnn(C)c4C3)cn2)C1` [Example 19.6, (R)-(2-(3-(2-ethoxyphenoxy)piperidin-1-yl)pyrimidin-5-yl)(1-methyl-4,6-dihydropyrrolo[3,4-c]pyrazol-5(1H)-yl)methanone], the pIC50 is 7.46.
Take `CCOc1ccccc1O[C@@H]1CCCN(c2ncc(C(=O)Nc3cncnc3)cn2)C1` [Example 19.20, (R)-2-(3-(2-ethoxyphenoxy)piperidin-1-yl)-N-(pyrimidin-5-yl)pyrimidine-5-carboxamide]: the pIC50 is 7.48.
Same read-out and setting: in the case of `CCOc1ccccc1O[C@@H]1CCCN(c2ncc(C(=O)NCCC(N)=O)cn2)C1` [Example 20.1, (R)-N-(3-amino-3-oxopropyl)-2-(3-(2-ethoxyphenoxy)piperidin-1-yl)pyrimidine-5-carboxamide] it was 6.83.

Staying with this experiment, now noted: read-out: IC50 for inhibition of DGAT2.
Take `CCOc1ccccc1O[C@@H]1CCCN(c2ncc(C(=O)N3CCCCC3)cn2)C1` [Example 20.11, (R)-(2-(3-(2-ethoxyphenoxy)piperidin-1-yl)pyrimidin-5-yl)(piperidin-1-yl)methanone]: the pIC50 was 7.80.

Source of the values: patent US9789110B2, “Diacylglycerol acyltransferase 2 inhibitors” (PFIZER INC., priority 2014, dated 2017).
